Key:
JAK3 (h) = target: T1, JAK3 (h) (Homo sapiens, UniProt P52333); test: Radioisotope labeling kinase assay (Eurofins), JAK3; assay type: biochemical; details: for activity at 1 µM: 1 μM compound, read-out: Inhibitory activity per unit concentration/Activity % JAK3 (h)
T1 construct: purchased Eurofins
T1 sequence (P52333 1-1124): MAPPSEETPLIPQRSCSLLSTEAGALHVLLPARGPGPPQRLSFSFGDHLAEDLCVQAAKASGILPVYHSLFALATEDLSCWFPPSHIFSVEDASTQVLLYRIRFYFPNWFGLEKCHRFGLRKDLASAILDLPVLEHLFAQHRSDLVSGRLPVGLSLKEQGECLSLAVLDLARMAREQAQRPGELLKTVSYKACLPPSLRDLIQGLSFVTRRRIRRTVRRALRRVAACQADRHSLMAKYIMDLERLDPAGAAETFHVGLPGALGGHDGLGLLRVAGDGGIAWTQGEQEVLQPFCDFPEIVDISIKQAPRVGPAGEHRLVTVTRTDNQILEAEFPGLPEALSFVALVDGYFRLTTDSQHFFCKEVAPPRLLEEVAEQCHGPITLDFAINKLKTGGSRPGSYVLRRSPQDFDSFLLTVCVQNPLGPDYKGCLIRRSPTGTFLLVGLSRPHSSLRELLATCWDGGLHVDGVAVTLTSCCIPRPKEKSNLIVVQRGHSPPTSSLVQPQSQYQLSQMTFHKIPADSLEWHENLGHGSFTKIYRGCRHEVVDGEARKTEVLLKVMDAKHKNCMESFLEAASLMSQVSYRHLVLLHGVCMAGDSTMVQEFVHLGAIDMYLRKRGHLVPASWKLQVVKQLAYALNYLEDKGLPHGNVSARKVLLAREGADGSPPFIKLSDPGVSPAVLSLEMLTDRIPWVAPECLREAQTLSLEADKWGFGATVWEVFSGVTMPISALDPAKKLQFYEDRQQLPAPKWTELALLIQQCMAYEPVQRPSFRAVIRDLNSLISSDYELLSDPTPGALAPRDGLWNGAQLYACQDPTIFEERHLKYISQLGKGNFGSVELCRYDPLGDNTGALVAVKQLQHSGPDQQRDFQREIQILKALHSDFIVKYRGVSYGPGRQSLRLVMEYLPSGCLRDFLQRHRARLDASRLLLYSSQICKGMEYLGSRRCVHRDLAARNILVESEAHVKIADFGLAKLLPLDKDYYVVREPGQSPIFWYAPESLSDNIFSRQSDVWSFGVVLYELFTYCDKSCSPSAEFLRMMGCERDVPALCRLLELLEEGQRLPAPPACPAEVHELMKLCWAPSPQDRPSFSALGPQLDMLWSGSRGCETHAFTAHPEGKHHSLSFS
Method: (§1) An activity to a human recombinant protein kinase of a series of compounds was determined by a radioisotope labeling method, which was provided by Eurofins Company. A compound to be detected was mixed with a corresponding protein kinase buffer (20 mM propyl sulfonate (MOPS, […].), 1 mM EDTA, 0.10 β-mercaptoethanol, 0.010 Brij-35, […], and 1 mg/mL BSA), the mixture was added into a reaction system (100 μM reaction substrate […], 8 mM MOPS with a pH value of 7.0, 10 mM MgAcetate, 0.2 mM EDTA, and a certain concentration of γ-^33P-ATP). After adding an MgATP composite solution, the reaction was started at room temperature for 40 minutes, and the reaction was terminated by adding 5 μl of […] solution. Then, 10 μl of reaction solution was dropwise added onto a filter and washed with 75 mM phosphoric acid solution for three times, 5 minutes each time, then washed with methanol once again, and dried and subjected to scintillation counting.

Ab1 (h) = target: T2, Ab1 (h) (Homo sapiens, UniProt P00519); test: Radioisotope labeling kinase assay (Eurofins), Ab1; assay type: biochemical; details: for activity at 1 µM: 1 μM compound, read-out: Inhibitory activity per unit concentration/Activity % Ab1 (h)
T2 construct: purchased Eurofins
Method: as §1

[1] = test system: HL-60 Human acute myelogenous leukemia; test: MTT cell proliferation inhibition, HL-60; assay type: cell-based; details: HL-60, 72 hours
Method: (§2) Human cancer cells were purchased from ATCC. The cells were cultured in a culture medium according to the work instruction of ATCC. A dose-response curve was drawn by XL-fitting to determine an IC50 value of a compound. […] Cell proliferation inhibition could be detected by a MTT method (3-(4,5-Dimethylthiazol-2-yl)-2,5-diphenyltetrazolium bromide, and MTT; and 3-(4,5-dimethyl thiazole-2)-2,5-diphenyltertazolium bromide, and thiazolyl blue).
(§3) The cells were cultured in a culture dish first, and the cells in a logarithmic growth phase were inoculated into a 96-well plate (3,000 to 5,000 adherent cells/well, 10,000 to 30,000 suspended cells/well) according to a specific number, with 100 microliters per well, and then cultured in an incubator of 5% CO2 and 37° C. […] An absorbance of a general control group should be a normal value between 0.8 and 1.2. After obtaining absorbance data, a change curve of an inhibition rate was fitted by GraphPad Prism6.03 software and an IC50 value was calculated.
(§4) Calculation of drug inhibition rate: relative cell proliferation inhibition rate=[(control group A570−experimental group A570)/control group […], wherein A570 represented the absorbance at 570 nm.

[2] = test system: K562 Human acute myelogenous leukemia; test: MTT cell proliferation inhibition, K562; assay type: cell-based; details: K562, 72 hours
Method: as §2, §3, §4

[3] = test system: MGC-803 Human gastric cancer cells; test: MTT cell proliferation inhibition, MGC-803; assay type: cell-based; details: MGC-803, 72 hours
Method: as §2, §3, §4

[4] = test system: MV4-11 Human acute myelogenous leukemia; test: MTT cell proliferation inhibition, MV4-11; assay type: cell-based; details: MV4-11, 72 hours
Method: as §2, §3, §4

EGFR (T790M, L858R) (h) = target: T3, EGFR (T790M, L858R) (h) (Homo sapiens, UniProt P00533, L858R/T790M); test: Radioisotope labeling kinase assay (Eurofins), EGFR (T790M, L858R); assay type: biochemical
T3 construct: purchased Eurofins
Method: as §1

[5] = test system: HGC-27 Human gastric cancer cells; test: MTT cell proliferation inhibition, HGC-27; assay type: cell-based; details: HGC-27, 72 hours
Method: as §2, §3, §4

U266 Human myeloma cells = test: MTT cell proliferation inhibition, U266; assay type: cell-based; details: U-266, U266, 72 hours
Method: as §2, §3, §4

KDR (h) = target: T4, KDR (h) (Homo sapiens, UniProt P35968); test: Radioisotope labeling kinase assay (Eurofins), KDR; assay type: biochemical
T4 construct: purchased Eurofins
Method: as §1

Ret (h) = target: T5, Ret (h) (Homo sapiens, UniProt P07949); test: Radioisotope labeling kinase assay (Eurofins), Ret; assay type: biochemical
T5 construct: purchased Eurofins
Method: as §1

[6] = test system: HT1080 Human fibrosarcoma cells; test: MTT cell proliferation inhibition, HT1080; assay type: cell-based; details: HT-1080, HT1080, 72 hours
Method: as §2, §3, §4

T4 sequence (P35968 20-1356): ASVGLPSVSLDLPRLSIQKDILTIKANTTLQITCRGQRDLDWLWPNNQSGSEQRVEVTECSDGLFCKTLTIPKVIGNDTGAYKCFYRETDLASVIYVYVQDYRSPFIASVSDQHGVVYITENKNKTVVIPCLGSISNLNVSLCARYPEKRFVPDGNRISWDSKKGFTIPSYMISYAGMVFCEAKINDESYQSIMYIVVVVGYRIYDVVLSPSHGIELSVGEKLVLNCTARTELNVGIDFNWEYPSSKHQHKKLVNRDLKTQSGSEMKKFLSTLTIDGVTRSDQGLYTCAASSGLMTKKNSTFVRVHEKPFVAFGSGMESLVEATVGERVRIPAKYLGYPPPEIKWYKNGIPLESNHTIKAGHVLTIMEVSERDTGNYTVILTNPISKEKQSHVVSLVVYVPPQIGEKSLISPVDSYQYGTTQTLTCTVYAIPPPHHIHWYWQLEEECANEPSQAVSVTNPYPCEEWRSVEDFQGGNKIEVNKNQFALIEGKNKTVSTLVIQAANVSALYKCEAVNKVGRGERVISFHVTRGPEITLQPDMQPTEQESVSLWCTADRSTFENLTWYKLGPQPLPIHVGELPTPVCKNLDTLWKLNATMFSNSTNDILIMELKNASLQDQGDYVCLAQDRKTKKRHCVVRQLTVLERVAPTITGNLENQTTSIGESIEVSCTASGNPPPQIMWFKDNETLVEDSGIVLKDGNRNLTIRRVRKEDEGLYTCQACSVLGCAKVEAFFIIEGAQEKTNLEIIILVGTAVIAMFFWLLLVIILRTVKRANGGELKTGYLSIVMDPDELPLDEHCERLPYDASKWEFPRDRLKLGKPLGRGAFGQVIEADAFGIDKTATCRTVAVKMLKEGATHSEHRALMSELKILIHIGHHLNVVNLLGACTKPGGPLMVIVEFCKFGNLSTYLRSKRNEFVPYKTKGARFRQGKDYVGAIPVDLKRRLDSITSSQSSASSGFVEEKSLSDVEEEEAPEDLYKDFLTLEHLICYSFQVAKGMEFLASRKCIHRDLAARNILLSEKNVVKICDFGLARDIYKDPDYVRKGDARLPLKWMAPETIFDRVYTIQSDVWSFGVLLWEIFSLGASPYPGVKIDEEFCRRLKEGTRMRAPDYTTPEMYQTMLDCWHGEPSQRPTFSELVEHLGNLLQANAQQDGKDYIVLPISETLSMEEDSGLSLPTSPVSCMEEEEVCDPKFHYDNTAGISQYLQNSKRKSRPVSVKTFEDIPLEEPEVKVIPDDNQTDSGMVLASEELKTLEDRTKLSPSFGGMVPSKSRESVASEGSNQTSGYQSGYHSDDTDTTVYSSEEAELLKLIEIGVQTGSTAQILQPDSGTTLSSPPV
T5 sequence (P07949 29-1114): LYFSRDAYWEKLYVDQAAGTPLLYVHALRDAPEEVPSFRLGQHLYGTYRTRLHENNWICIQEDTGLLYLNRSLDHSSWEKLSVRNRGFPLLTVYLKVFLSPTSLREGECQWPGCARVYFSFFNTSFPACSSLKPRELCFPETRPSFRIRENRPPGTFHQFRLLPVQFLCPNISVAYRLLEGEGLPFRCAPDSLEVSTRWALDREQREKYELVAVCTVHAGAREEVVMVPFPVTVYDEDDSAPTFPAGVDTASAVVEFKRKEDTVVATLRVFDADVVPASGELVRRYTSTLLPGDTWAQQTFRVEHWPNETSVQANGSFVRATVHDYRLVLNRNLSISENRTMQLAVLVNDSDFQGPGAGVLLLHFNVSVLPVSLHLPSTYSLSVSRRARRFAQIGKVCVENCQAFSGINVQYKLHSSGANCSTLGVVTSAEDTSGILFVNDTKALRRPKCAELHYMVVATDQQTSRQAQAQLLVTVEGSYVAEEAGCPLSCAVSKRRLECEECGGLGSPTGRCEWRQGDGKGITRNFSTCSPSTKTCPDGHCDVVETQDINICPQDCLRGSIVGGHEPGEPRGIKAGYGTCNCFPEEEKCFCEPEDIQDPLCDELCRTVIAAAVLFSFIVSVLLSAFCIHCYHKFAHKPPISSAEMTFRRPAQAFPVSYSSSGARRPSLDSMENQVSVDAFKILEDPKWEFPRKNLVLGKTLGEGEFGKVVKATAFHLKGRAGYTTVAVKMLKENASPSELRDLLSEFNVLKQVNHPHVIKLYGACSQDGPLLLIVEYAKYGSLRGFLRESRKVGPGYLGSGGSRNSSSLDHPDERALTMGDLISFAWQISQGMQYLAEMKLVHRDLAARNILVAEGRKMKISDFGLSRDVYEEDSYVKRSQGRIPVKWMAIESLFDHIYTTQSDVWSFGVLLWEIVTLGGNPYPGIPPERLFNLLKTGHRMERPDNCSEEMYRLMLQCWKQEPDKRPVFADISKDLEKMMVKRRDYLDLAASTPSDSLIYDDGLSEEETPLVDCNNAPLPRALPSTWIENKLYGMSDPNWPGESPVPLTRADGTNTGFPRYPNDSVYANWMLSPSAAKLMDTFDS
T2 sequence (P00519 whole entry): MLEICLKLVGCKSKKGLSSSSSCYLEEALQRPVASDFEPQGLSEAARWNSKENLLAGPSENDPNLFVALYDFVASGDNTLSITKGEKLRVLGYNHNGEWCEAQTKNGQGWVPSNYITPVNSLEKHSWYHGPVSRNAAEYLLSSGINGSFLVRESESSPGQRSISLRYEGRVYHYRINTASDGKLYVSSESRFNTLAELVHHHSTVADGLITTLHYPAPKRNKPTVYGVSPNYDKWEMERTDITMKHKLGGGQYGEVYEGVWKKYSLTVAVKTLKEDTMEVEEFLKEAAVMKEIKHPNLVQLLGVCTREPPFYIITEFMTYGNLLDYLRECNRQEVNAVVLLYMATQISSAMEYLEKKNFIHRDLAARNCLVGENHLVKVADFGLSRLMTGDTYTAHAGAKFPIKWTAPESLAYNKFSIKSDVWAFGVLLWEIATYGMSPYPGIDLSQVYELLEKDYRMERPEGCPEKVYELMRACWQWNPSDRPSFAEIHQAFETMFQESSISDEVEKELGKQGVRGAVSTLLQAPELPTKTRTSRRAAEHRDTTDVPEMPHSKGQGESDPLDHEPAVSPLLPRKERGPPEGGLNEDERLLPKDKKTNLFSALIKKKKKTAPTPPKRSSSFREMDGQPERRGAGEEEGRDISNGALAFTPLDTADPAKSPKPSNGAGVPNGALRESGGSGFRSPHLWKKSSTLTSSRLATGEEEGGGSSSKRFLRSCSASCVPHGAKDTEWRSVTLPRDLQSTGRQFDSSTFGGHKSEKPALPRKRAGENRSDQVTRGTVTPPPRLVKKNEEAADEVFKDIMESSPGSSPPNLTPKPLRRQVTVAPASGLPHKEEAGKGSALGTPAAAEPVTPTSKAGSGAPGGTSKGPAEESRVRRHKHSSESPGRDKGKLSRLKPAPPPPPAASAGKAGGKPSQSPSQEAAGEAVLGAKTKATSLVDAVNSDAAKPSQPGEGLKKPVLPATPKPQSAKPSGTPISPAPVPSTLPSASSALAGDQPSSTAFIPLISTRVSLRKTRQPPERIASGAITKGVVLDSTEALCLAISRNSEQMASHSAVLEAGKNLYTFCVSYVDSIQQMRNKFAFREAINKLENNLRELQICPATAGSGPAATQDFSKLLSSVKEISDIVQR
T3 sequence (P00533 25-1210 T790M/L858R): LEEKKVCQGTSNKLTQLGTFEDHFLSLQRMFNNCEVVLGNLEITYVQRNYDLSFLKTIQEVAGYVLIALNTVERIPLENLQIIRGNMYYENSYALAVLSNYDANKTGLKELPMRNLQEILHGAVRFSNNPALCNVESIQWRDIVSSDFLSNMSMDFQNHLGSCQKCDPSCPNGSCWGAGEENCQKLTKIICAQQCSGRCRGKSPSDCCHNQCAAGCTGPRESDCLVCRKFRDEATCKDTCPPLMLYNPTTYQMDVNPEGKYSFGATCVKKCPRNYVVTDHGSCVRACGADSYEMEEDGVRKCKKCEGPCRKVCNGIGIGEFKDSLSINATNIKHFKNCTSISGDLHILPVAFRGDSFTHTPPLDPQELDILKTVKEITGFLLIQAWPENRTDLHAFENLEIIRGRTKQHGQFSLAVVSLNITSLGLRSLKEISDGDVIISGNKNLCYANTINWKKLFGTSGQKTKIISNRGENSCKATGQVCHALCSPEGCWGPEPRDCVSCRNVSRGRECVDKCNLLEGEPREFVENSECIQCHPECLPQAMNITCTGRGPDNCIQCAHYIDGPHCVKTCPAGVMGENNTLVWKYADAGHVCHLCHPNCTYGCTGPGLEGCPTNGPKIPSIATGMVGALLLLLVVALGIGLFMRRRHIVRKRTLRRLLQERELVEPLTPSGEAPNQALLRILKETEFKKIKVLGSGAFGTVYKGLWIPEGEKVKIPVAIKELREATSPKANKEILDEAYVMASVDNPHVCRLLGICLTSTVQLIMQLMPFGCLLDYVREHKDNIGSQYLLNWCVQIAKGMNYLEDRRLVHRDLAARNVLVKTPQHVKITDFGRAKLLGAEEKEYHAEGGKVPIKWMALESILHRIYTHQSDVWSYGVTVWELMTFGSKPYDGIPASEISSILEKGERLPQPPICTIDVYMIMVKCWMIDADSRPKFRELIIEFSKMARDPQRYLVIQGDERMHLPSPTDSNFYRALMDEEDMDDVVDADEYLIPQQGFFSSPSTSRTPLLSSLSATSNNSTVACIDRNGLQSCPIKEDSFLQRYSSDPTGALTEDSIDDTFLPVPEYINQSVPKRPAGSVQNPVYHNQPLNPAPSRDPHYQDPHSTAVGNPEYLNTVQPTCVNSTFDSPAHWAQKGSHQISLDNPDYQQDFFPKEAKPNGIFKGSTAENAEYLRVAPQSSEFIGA

SMILES | activity at 1 µM (JAK3 (h)) [%] | activity at 1 µM (Ab1 (h)) [%] | IC50 [1] [nM] | IC50 [2] [nM] | IC50 [3] [nM] | IC50 [4] [nM] | IC50 (EGFR (T790M, L858R) (h)) [nM] | IC50 [5] [nM] | IC50 (U266 Human myeloma cells) [nM] | IC50 (KDR (h)) [nM] | IC50 (Ret (h)) [nM] | IC50 [6] [nM] | IC50 (JAK3 (h)) [nM] | IC50 (Ab1 (h)) [nM]
O=C(/C=C/CN1CCOCC1)Nc1cc2cc(c1)Nc1nccc(n1)-c1cccc(c1)COC/C=C/COC2 [XVI-3] | 8 | 8 | 866 | 2880 | 2760 | 87 | 21 | 495 | 2700 | 21 | 145 | 1580 | – | –
CN(C)C/C=C/C(=O)Nc1cc2cc(c1)Nc1nccc(n1)-c1cccc(c1)COC/C=C/COC2 [XVI-8] | 19 | 4 | – | – | – | – | 17 | – | – | 97 | 79 | – | – | –
Nc1cc2cc(c1)Nc1nccc(n1)-c1cccc(c1)COC/C=C/COC2 [XIII-1] | 10 | 11 | – | – | – | – | 19 | – | – | 50 | 123 | – | – | –
O=C(O)/C=C/C(=O)Nc1cc2cc(c1)Nc1nccc(n1)-c1cccc(c1)COC/C=C/COC2 [XVI-9] | 4 | – | – | – | – | – | – | – | – | – | – | – | 17 | –
C/C=C/C(=O)Nc1cc2cc(c1)Nc1nccc(n1)-c1cccc(c1)COC/C=C/COC2 [XVI-4] | 11 | 11 | – | – | – | – | 60 | – | – | – | 314 | – | – | –
O=C(/C=C/CN1CCCC1)Nc1cc2cc(c1)Nc1nccc(n1)-c1cccc(c1)COC/C=C/COC2 [XVI-1] | 9 | -1 | 326 | 470 | 573 | 30 | 10 | 110 | 614 | 17 | 66 | 706 | – | –
C=CC(=O)Nc1cc2cc(c1)Nc1nccc(n1)-c1cccc(c1)COC/C=C/COC2 [XVI-6] | 16 | 17 | – | – | – | – | 64 | – | – | 61 | 202 | – | – | –

The next lines start with the values.

activity at 1 µM (JAK3 (h)) [%] | activity at 1 µM (Ab1 (h)) [%] | IC50 [1] [nM] | IC50 [2] [nM] | IC50 [3] [nM] | IC50 [4] [nM] | IC50 (EGFR (T790M, L858R) (h)) [nM] | IC50 [5] [nM] | IC50 (U266 Human myeloma cells) [nM] | IC50 (KDR (h)) [nM] | IC50 (Ret (h)) [nM] | IC50 [6] [nM] | IC50 (JAK3 (h)) [nM] | IC50 (Ab1 (h)) [nM] | SMILES
74 | 32 | – | – | – | – | 164 | – | – | 329 | 594 | – | – | – | CN(C)C/C=C/C(=O)Nc1cc2cc(c1)Nc1nccc(n1)-c1cccc(c1)COC/C=C/CN(C)C2 [XVI-26]
51 | 37 | – | – | – | – | 300 | – | – | 76 | 1980 | – | – | – | C/C=C/C(=O)Nc1cc2cc(c1)Nc1nccc(n1)-c1cccc(c1)COC/C=C/CN(C)C2 [XVI-28]
26 | – | – | – | – | – | – | – | – | – | – | – | – | – | C1=C/COCc2cccc(c2)-c2ccnc(n2)Nc2cc(cc(OC/C=C/CN3CCCC3)c2)COC/1 [XVI-12]
2 | 9 | – | – | – | – | – | – | – | 40 | – | – | 44 | 139 | O=C(/C=C/C(=O)N1CCOCC1)Nc1cc2cc(c1)Nc1nccc(n1)-c1cccc(c1)COC/C=C/COC2 [XVI-10]
16 | 1 | – | – | – | – | 39 | – | – | – | 110 | – | – | – | C#CC(=O)Nc1cc2cc(c1)Nc1nccc(n1)-c1cccc(c1)COC/C=C/COC2 [XVII-1]
6 | -1 | – | – | – | – | – | – | – | 189 | – | – | 151 | 34 | O=C(/C=C/C(=O)N1CCNCC1)Nc1cc2cc(c1)Nc1nccc(n1)-c1cccc(c1)COC/C=C/COC2 [XVI-11]
